PMC12518634, “The noncanonical function of liver-type phosphofructokinase potentiates the efficacy of HDAC inhibitors in cancer” (Signal Transduction and Targeted Therapy, 2025)
Where no end group is shown, it is not given here.

What was measured:
[1] = system: TFK1 cells; assay: Cell viability assay (CellTiter-Glo, 72 h), GI50; format: cell-based, human; conditions: TFK1 sgPFKL-1 and sgPFKL-2 versus sgNC, Supplementary Fig. 2d
Procedure: Cell viability was assessed using the CellTiter-Glo luminescent cell viability assay (Vazyme, DD1101) following the manufacturer’s instructions. Briefly, 5000 cells per well were seeded into a 96-well white bottom permeable plate. Different concentrations of drugs were added to each well. After 72 h of treatment, a mixture of CellTier reagent and serum-free culture medium was prepared at a 1:1 ratio, and 100 μL of the mixture was added to each well. After incubation at 37 °C for 15 min, the luminescence was measured using a microplate reader (Synergy H1, Biotek). All the experiments were conducted in triplicate. Cell viability (relative luminescence) was defined as the luminescence of the drug treatment relative to that of the vehicle control.

[2] = system: 783C-6; assay: High-throughput drug screen, CellTiter-Glo viability, 72 h; format: cell-based, human; parameters: AUC: scale not given here; conditions: 783C-6 cells
Method in brief: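 Cholangiocarcinoma cells were seeded at 3000/well in 384-well plates and dosed after 24 h. Drugs were tested at 10, 1, 0.1, 0.01 and 0.001 μM in duplicate for 72 h, with viability read by CellTiter-Glo luminescence.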

[3] = system: 1405R3; assay: as above; format: cell-based, human; parameters: AUC: scale not given here; conditions: 1405R3 DSRT analysis
Method in brief: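 Responses are drug sensitivity scores (efficacy cutoff ≥10), fitted from CellTiter-Glo luminescence. Each drug was given at five concentrations (10 to 0.001 μM, tenfold steps) in duplicate for 72 h. Cells were plated at 3000/well 24 h before dosing.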

[4] = system: HuCCT1 cells; assay: CCK-8 cytotoxicity of the peptides; format: cell-based, human; conditions: CCK-8 assay, n=3 biological replicates, Supplementary Fig. 13c
Procedure: The cell proliferation rates were determined with a CCK-8 Cell Counting Kit (Vazyme, A311) in strict accordance with the provided protocol. The colony formation capacity was assessed by plating the cells in 6-well plates (5000 cells/well), followed by drug treatment over a 7-day period. Finally, the resulting colonies were subjected to crystal violet staining for subsequent quantification.
(§1) Supplementary Fig. 13. […] Scale bars, 100 μm. i Body weight of each group of HuCCT1 xenografts at the end of treatment is plotted (n = 6 mice per group, two-way ANOVA). j The tumor weight of each group of HuCCT1 xenografts at the end of treatment is plotted (n = 6 mice per group, Student’s t test).

[5] = system: HuCCT1 cells; assay: Confocal imaging of peptide infiltration into cells; format: in vitro ADME, human; conditions: confocal images, Supplementary Fig. 13b
Text: as §1

[6] = area under the dose-response curve

cellular permeability [5]	Compound	effect of PFKL knockout on drug efficacy (cell viability) [1]	DSS ([2]; DSS of DSRT analysis)	AUC [2, 6]	MIN ([2]; minimum of dose-response curve)	AUC [3, 6]	DSS ([3]; drug sensitivity score)	MIN ([3]; lower asymptote of fitted dose-response curve)	cytotoxicity [4]
	O=C(CCCCCCC(=O)Nc1ccccc1)NO [vorinostat, reference compound]	significantly inhibited drug efficacy	11.5	104.1	3.6	87	10	6.1	
good cellular permeability	CDRIKQSASGKRRVFIVETMRRRRRRRR [∆562-R8]								low cytotoxicity
good cellular permeability	CDRIKQSASGTKRRVFIVETMRRRRRRRR [PFKL-552-572-R8]								low cytotoxicity
